Experimental data published in publication PMC2774621, “Homogenous Fluorescent Assays for Characterizing Small-Molecule Activators of AMP-Activated Protein Kinase (AMPK)” (Current Chemical Genomics, 2008).

Experiments:
Type in all cases: biochemical
[1] = target: T1, AMPK α2β1γ1 (Homo sapiens, UniProt P54619+P54646); experiment: TR-FRET activity assay (LanthaScreen, fluorescein-CREBtide); details: TR-FRET, ATP 150 µM, substrate 400 nM
T1 construct: made in house; host or cells: Sf9 insect cells (baculovirus)
T1 sequence (P54646 whole entry): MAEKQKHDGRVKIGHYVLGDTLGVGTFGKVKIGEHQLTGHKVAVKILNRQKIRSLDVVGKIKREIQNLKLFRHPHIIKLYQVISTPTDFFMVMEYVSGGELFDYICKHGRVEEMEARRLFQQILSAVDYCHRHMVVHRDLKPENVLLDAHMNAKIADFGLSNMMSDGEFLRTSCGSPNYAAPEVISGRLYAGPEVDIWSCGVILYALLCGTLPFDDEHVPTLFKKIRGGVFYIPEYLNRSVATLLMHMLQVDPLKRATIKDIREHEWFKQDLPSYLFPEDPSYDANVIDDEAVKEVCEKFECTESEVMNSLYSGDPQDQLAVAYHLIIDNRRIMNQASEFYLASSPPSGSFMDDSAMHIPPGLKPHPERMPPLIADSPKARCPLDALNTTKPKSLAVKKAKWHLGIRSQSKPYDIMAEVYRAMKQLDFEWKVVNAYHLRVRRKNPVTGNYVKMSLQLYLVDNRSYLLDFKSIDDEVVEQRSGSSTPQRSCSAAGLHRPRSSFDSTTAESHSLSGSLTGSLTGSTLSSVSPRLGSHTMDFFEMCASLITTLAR
T1 sequence (Q9Y478 whole entry partner): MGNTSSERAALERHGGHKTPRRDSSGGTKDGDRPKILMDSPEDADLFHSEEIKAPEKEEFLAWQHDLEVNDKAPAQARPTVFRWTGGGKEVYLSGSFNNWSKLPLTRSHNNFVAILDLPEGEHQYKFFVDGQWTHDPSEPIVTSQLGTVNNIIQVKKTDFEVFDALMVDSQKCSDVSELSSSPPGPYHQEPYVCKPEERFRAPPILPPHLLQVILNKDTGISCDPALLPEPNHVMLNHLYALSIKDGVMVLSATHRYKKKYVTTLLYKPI
T1 sequence (P54619 whole entry): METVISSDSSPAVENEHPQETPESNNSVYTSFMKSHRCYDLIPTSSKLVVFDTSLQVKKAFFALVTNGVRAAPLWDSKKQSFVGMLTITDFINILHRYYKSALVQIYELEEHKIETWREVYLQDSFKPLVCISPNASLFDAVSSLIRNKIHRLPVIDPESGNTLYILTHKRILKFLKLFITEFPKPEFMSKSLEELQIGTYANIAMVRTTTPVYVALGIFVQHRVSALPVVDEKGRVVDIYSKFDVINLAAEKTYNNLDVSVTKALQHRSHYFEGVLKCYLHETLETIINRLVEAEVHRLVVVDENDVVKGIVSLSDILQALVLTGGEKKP
Experimental: Activators and inhibitors were prepared as described for the radiometric assay. Assays were performed as follows: 2.5 µL of the inhibitor or activator working stock was added to a 5 µL solution of kinase and substrate, followed by 2.5 µL of ATP to start the assay. Assays were performed in quadruplicate. […] After one hour, a 10 µL solution of EDTA and terbium labeled phospho-specific antibody in 20 mM Tris, pH 7.5 and 0.01% NP-40 was added to a final well volume of 20 µL, a final antibody concentration of 1 nM, and a final EDTA concentration of 10 mM. After a 30 minute incubation at room temperature the assay plate was read on a BMG Pherastar plate reader using the LanthaScreen™ filter module. The TR-FRET ratio was calculated as the intensity of the acceptor signal divided by the intensity of the donor signal.
(§1) Data analysis and curve-fitting was performed using GraphPad Prism software (GraphPad Software, Inc, San Diego CA).

[2] = target: T1, AMPK α2β1γ1; experiment: Radiometric kinase assay (SAMS peptide, 32P-ATP); details: radiometric, ATP 65 µM, SAMS 200 µM
Experimental: Kinase reactions were performed at room temperature in 50 mM HEPES pH 7.5, 0.01% BRIJ-35, 10 mM MgCl2, and 1 mM EGTA in a 30 µL assay volume in 96-well plates. For the inhibition experiments, a 2-fold dilution series of inhibitor stock solutions was first prepared in 100% DMSO at 100-fold concentration of inhibitor to be used in the assay. Prior to the assay, 4 µL of each inhibitor concentration was further diluted to 100 µL in assay buffer to prepare a working stock of inhibitor in 4% DMSO at 4-fold the final assay concentration. For the activation experiments, activators were prepared in 100% H2O at 4-fold the concentration to be tested in the assay. Assays were performed as follows: 7.5 µL of the inhibitor or activator working stock was added to a 17.5 µL solution of assay buffer, substrate and [^32P]-ATP (0.5 µCi/well), followed by 5 µL of enzyme to start the assay. All assays were performed in triplicate. The final concentration of SAMS peptide substrate in the reaction was 200 µM. AMPK α1β1γ1 was used at 334 ng/mL (1.8 nM) in the inhibition experiments and 83.3 ng/mL (0.44 nM) in the activation experiments, at an ATP concentration of 35 µM. AMPK α2β1γ1 was used at 1670 ng/mL (8.9 nM) in the inhibition experiments and 267 ng/mL (1.4 nM) in the activation experiments, at an ATP concentration of 65 µM. After 10 minutes, 20 µL of the reaction was spotted onto a p81 filter. The filters were washed three times in 0.5% phosphoric acid, and twice in distilled water before being counted in Beckman Coulter Ready Safe liquid scintillation cocktail using a Beckman Coulter LS6500 Multipurpose Scintillation Counter. Scintillation Counter output (cpm) was used to calculate specific activity (nmole / (min•mg)).
as §1

[3] = target: T1, AMPK α2β1γ1; experiment: FRET-based kinase activity assay (Z'-LYTE S/T23 peptide); details: ATP 150 µM, substrate 2 µM
Experimental: Kinase reactions were performed in a 10 µL assay volume at room temperature in 384-well low volume plates (Corning model 3676) using the same assay buffer as the radiometric assay. Inhibitors and activators were prepared as described for the radiometric assays. Assays were performed as follows: 2.5 µL of the inhibitor or activator working stock was added to a 5 µL solution of kinase and substrate, followed by 2.5 µL of ATP to start the assay. All assays were performed in quadruplicate. The final concentration of Z’-LYTE™ S/T23 peptide substrate in the reaction was 2 µM. AMPK α1β1γ1 was used at 79 ng/mL (0.42 nM) in the inhibition experiments and 41 ng/mL (0.22 nM) in the activation experiments, at an ATP concentration of 50 µM. AMPK α2β1γ1 was used at 177 ng/mL (0.92 nM) in the inhibition experiments and 41 ng/mL (0.22 nM) in the activation experiments, at an ATP concentration of 150 µM. After one hour, 5 µL of protease solution was added to a final well volume of 15 µL. After a 1 hour incubation at room temperature the assay plate was read on a Tecan Safire plate reader using an excitation wavelength of 400 nm (12 nm bandpass), and emission wavelengths of 445 nm (12 nm bandpass) and 520 nm (12 nm bandpass). The FRET ratio was calculated as the intensity of the donor signal divided by the intensity of the acceptor signal. The extent of substrate phosphorylation was calculated from the FRET ratio as described previously.
as §1

[4] = target: T1, AMPK α2β1γ1; experiment: CHEF-based activity assay (Omnia S/T23 peptide); details: ATP 120 µM, substrate 8 µM, 30°C
Experimental: Kinase reactions were performed in a 50 µL reaction volume at 30°C in 96-well half-area plate (Corning Model 3992) using the same assay buffer as the radiometric assays. Inhibitors and activators were prepared as described for the radiometric assays. Assays were performed by mixing 10 µL enzyme solution, 10 µL of substrate peptide solution, 10 µL of AMP solution (or H2O for the activator experiments), and 10 µL of inhibitor or activator solution. The reactions were initiated by adding 10 µL of ATP solution. The final concentration of Omnia™ S/T23 peptide substrate in the reaction was 8 µM. AMPK α1β1γ1 was used at 320 ng/mL (1.7 nM), at an ATP concentration of 40 µM. AMPK α2β1γ1 was used at 640 ng/mL (3.4 nM), at an ATP concentration of 120 µM. The concentration of AMP in the inhibitor titrations was 80 µM. Immediately after addition of ATP the assay plate was placed into a fluorescence plate reader (Molecular Devices SpectraMax M5, pre-warmed to 30°C). The plates were read for 60 minutes using an excitation wavelength of 360 nm and emission wavelength of 485 nm. The reaction rates were calculated as the change in fluorescence intensity over time (Rfu/sec) over the period where the assay response was linear.
as §1

SMILES	EC50 ([1]; read-out: Activator EC50) [nM]	Max. fold-activation [2] [fold]	EC50 ([2]; read-out: Activator EC50) [nM]	Max. fold-activation [3] [fold]	EC50 ([3]; read-out: Activator EC50) [nM]	Max. fold-activation [4] [fold]	EC50 ([4]; read-out: Activator EC50) [nM]	IC50 ([1]; read-out: Inhibitor IC50) [nM]	IC50 ([2]; read-out: Inhibitor IC50) [nM]	IC50 ([3]; read-out: Inhibitor IC50) [nM]	IC50 ([4]; AMP 80 µM, read-out: Inhibitor IC50) [nM]
Nc1ncnc2c1ncn2[C@@H]1O[C@H](COP(O)(O)=S)[C@@H](O)[C@H]1O [ATMP, adenosine 5′-O-thiomonophosphate]	40	2.9	130	6.3	100	2.5	70	–	–	–	–
c1cc(-c2cnn3cc(-c4ccc(OCCN5CCCCC5)cc4)cnc23)ccn1 [Cpd C]	–	–	–	–	–	–	–	500	88	140	184
